Experimental data as given in ChEMBL document CHEMBL2203069, “Synthesis and structure-activity relationships of a novel series of pyrimidines as potent inhibitors of TBK1/IKKε kinases” (Bioorg Med Chem Lett, 2012).

Columns and labels:
[1] = molecular target: T1, Serine/threonine-protein kinase TBK1 (Homo sapiens, UniProt Q9UHD2); test: Inhibition of TBK1 by radiometry
T1 sequence (Q9UHD2 whole entry): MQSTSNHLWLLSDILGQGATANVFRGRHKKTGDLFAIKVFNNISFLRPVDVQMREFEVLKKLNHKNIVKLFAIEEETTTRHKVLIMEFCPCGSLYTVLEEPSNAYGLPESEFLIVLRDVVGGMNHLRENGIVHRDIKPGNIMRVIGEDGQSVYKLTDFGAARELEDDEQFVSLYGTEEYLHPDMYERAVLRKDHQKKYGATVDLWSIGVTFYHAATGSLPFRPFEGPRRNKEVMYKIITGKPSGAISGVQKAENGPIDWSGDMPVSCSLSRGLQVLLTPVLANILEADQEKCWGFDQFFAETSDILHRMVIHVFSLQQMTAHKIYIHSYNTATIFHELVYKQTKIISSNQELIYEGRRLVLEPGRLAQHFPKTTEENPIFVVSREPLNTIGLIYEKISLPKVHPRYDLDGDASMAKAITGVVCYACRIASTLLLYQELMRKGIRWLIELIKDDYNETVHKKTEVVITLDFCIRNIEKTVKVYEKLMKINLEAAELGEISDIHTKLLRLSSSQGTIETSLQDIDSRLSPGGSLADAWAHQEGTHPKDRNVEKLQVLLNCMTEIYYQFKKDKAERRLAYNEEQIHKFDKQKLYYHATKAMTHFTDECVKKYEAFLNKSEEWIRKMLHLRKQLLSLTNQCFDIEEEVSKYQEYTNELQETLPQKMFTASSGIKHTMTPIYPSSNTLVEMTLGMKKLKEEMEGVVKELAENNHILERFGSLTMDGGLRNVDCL

[2] = Metabolic stability in human liver microsomes assessed as compound turnover after 40 mins; assay type: ADME, Microsome; settings: read-out: Drug metabolism
[3] = molecular target: T2, Serine/threonine-protein kinase TBK1 (Mus musculus, UniProt Q9WUN2); test: Inhibition of TBK1-mediated RANTES release in LPS-stimulated mouse RAW264.7 cells compound incubated for 30 mins prior LPS challenge measured after 6 hrs by ELISA; assay type: cell-based
T2 sequence (Q9WUN2 whole entry): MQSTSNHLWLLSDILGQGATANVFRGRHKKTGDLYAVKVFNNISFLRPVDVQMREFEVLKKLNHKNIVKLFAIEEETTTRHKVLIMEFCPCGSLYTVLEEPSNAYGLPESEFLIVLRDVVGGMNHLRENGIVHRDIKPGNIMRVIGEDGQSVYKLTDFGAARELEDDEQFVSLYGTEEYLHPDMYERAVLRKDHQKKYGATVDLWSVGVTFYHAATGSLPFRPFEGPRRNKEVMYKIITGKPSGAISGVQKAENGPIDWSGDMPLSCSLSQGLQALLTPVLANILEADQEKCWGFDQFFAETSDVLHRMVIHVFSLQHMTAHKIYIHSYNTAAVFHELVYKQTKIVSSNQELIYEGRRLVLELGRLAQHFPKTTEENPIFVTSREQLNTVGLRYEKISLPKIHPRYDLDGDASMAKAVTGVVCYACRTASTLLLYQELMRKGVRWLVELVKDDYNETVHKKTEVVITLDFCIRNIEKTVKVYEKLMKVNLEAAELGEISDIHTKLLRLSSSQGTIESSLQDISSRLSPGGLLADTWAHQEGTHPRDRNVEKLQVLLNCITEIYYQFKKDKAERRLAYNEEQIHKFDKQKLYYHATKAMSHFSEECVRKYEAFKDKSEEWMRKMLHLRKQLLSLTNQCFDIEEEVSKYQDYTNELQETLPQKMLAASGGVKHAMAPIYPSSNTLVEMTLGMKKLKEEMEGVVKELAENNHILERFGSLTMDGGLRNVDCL

[4] = Metabolic stability in mouse liver microsomes assessed as compound turnover after 30 mins; assay type: ADME, Microsome; settings: read-out: Drug metabolism
[5] = molecular target: T3, 3-phosphoinositide-dependent protein kinase 1 (Homo sapiens, UniProt O15530); test: Inhibition of PDK1 by radiometry
T3 sequence (O15530 whole entry): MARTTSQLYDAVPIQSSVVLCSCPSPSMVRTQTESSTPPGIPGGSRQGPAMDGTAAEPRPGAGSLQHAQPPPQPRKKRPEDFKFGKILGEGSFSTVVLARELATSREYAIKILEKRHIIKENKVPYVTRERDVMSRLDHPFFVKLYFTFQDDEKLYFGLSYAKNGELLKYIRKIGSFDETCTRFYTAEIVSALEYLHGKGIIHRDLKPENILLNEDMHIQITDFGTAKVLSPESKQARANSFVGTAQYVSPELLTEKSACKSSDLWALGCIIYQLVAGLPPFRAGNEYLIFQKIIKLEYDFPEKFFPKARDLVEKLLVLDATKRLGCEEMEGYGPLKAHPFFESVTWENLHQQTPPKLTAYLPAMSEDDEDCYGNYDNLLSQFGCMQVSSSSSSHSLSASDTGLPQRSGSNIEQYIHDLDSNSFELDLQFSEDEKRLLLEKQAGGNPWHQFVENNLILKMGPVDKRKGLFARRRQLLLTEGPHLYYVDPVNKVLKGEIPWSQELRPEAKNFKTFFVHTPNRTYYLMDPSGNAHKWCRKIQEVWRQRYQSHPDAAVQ

[6] = Permeability from apical to basolateral side of human Caco2 cells; assay type: ADME, cell-based; settings: Caco-2, read-out: permeability
[7] = Efflux ratio of permeability from basolateral to apical side to apical to basolateral side in human Caco2 cells; assay type: ADME, cell-based; settings: Caco-2

| IC50 [1] [nM] | metabolised at 40 min [2] [%] | IC50 ([3]; read-out: IC50) [nM] | metabolised at 0.5 h [4] [%] | Compound | further results |
| --- | --- | --- | --- | --- | --- |
| 430 |  |  |  | CC(=O)N1CCC(C(=O)NCCCNc2nc(Nc3cccc(F)c3)ncc2Br)CC1 |  |
| > 1000 |  |  |  | CC(C)c1cnc(Nc2cccc(F)c2)nc1NCCCNC(=O)C1CCC1 |  |
| 15 | 15 | 490 | 92 | O=C(NCCCNc1nc(Nc2ccc(N3CCOCC3)nc2)ncc1C1CC1)C1CCC1 |  |
| 13 |  | > 1000 |  | O=C(NCCCNc1nc(Nc2cccnc2)ncc1C1CC1)C1CCC1 |  |
| 60 |  |  |  | COCCC(=O)NCCCNc1nc(Nc2cccc(F)c2)ncc1Br |  |
| 560 |  |  |  | O=C(CCc1ccccc1)NCCCNc1nc(Nc2cccc(F)c2)ncc1Br |  |
| 8 | 80 | 1300 | 74 | O=C(NCCCNc1nc(Nc2cccc(F)c2)ncc1C1CC1)C1CCC1 | IC50 [5]: 580 nM |
| > 1000 |  |  |  | O=C(NCCCNc1nc(Nc2cccc(F)c2)ncc1CC1CC1)C1CCC1 |  |
| 7 | 37 | 140 | 54 | CCn1cc(Nc2ncc(C3CC3)c(NCCCNC(=O)C3CCC3)n2)cn1 |  |
| 22 |  |  |  | O=C(NCCCNc1nc(Nc2cccc(F)c2)ncc1Br)c1cnccn1 |  |
| 4 | 61 | 81 | 41 | CC(C)n1cc(Nc2ncc(C3CC3)c(NCCCNC(=O)C3CCC3)n2)cn1 |  |
| 9 |  |  |  | O=C(NCCCNc1nc(Nc2cccc(F)c2)ncc1Br)c1cccs1 | IC50 [5]: 130 nM |
| > 10000 |  |  |  | O=C(NCCCNc1nc(NC2CCCCC2)ncc1C1CC1)c1cccs1 |  |
| 9 | 46 | 9000 | 68 | O=C(NCCCNc1nc(Nc2cnn(CCN3CCOCC3)c2)ncc1C1CC1)C1CCC1 |  |
| 4300 |  |  |  | CN1CCC(C(=O)NCCCNc2nc(Nc3cccc(F)c3)ncc2Br)CC1 |  |
| 110 |  |  |  | O=C(NCCCNc1nc(Nc2cccc(F)c2)ncc1C1CC1)c1cccs1 |  |
| 28 |  | 580 |  | O=C(NCCCNc1nc(Nc2cccc(N3CCOCC3)c2)ncc1C1CC1)C1CCC1 |  |
| 63 |  |  |  | CCc1cnc(Nc2cccc(F)c2)nc1NCCCNC(=O)C1CCC1 |  |
| 2 |  |  |  | CN1CCN(C(=O)c2ccc(Nc3ncc(C4CC4)c(NCCCNC(=O)C4CCC4)n3)cc2)CC1 | IC50 ([3]; raw264.7): Not Active |
| 16 | 42 | 380 | 40 | Cn1ncc2cc(Nc3ncc(C4CC4)c(NCCCNC(=O)C4CCC4)n3)ccc21 |  |
| 3 | 63 | 88 |  | O=C(NCCCNc1nc(Nc2cccc(Cn3cncn3)c2)ncc1C1CC1)C1CCC1 |  |

| IC50 [1] [nM] | metabolised at 40 min [2] [%] | IC50 ([3]; read-out: IC50) [nM] | metabolised at 0.5 h [4] [%] | Compound | further results |
| --- | --- | --- | --- | --- | --- |
|  |  |  |  | O=C(NCCCNc1nc(Nc2cccc(F)c2)ncc1Br)C1CCC1 | IC50 [5]: 68 nM |
| 7 | 91 | 570 | 86 | O=C(NCCCNc1nc(Nc2ccc3c(c2)CN(C2CC2)CC3)ncc1C1CC1)C1CCC1 |  |
| 11 | 26 | 560 | 34 | O=C(NCCCNc1nc(Nc2cccc(-c3cnco3)c2)ncc1C1CC1)C1CCC1 |  |
| 450 |  |  |  | O=C(NCCCNc1nc(Nc2cccc(F)c2)ncc1Br)c1ccc(C(F)(F)F)cc1 |  |
| 820 |  |  |  | O=C(NCCCNc1nc(Nc2ccccc2F)ncc1C1CC1)c1cccs1 |  |
| 3 | 23 | 150 | 35 | O=C(NCCCNc1nc(Nc2ccc(-n3cncn3)cc2)ncc1C1CC1)C1CCC1 | Papp A→B [6]: 10 ×10⁻⁶ cm/s; efflux ratio [7]: 3 |
| 3600 |  |  |  | O=C(NCCCNc1nc(Nc2cccc(F)c2)ncc1Br)c1cccc(N2CCOCC2)c1 |  |
| > 1000 |  |  |  | Cn1ccc(Nc2ncc(C3CC3)c(NCCCNC(=O)C3CCC3)n2)n1 |  |
| 3200 |  |  |  | O=C(NCCCNc1nc(Nc2cncnc2)ncc1C1CC1)C1CCC1 |  |
| 8 | 23 | 660 | 30 | CN1CCC(c2ccc(Nc3ncc(C4CC4)c(NCCCNC(=O)C4CCC4)n3)cc2)CC1 |  |
| 4 | 67 | 93 | 59 | O=C(NCCCNc1nc(Nc2cnn(C3CCCC3)c2)ncc1C1CC1)C1CCC1 |  |
| 10 | 32 | 130 | 24 | O=C(NCCCNc1nc(Nc2cnn(C3CC3)c2)ncc1C1CC1)C1CCC1 |  |
| 7 | 86 | 90 | 41 | Cc1nn(C)c2cc(Nc3ncc(C4CC4)c(NCCCNC(=O)C4CCC4)n3)ccc12 |  |
| > 10000 |  |  |  | O=C(NCCCNc1nc(NCc2ccc(F)cc2)ncc1C1CC1)c1cccs1 |  |
| 2 | 61 | 220 | 61 | O=C(NCCCNc1nc(Nc2cnn(C3CCC3)c2)ncc1C1CC1)C1CCC1 |  |
| 2 | 25 | 280 | 33 | O=C(NCCCNc1nc(Nc2cnn(C3CCOCC3)c2)ncc1C1CC1)C1CCC1 |  |
| 7 | 24 | 3000 | 42 | CC(C)N1CCC(n2cc(Nc3ncc(C4CC4)c(NCCCNC(=O)C4CCC4)n3)cn2)CC1 | Papp A→B [6]: 1.4 ×10⁻⁶ cm/s; efflux ratio [7]: 16 |
| 9 |  | 1200 |  | O=C(NCCCNc1nc(Nc2ccc(CN3CCCCC3)nc2)ncc1C1CC1)C1CCC1 | Papp A→B [6]: 0.1 ×10⁻⁶ cm/s; efflux ratio [7]: 780 |
| 8 |  |  |  | O=C(NCCCNc1nc(Nc2cccc(F)c2)ncc1Br)C1CCCC1 | IC50 [5]: 220 nM |
| 6 |  |  |  | O=C(NCCCNc1nc(Nc2cccc(NC(=O)N3CCCC3)c2)ncc1Br)c1cccs1 |  |
| 6 |  | 550 |  | CN(C)Cc1ccc(Nc2ncc(C3CC3)c(NCCCNC(=O)C3CCC3)n2)cc1 | Papp A→B [6]: 1 ×10⁻⁶ cm/s; efflux ratio [7]: 56 |
